Assay results published in paper PMC11396129, “Oxindole–benzothiazole hybrids as CDK2 inhibitors and anticancer agents: design, synthesis and biological evaluation” (BMC Chemistry, 2024).

Experiments:
[1] = tested on: DU145 prostate cancer cell line; assay: Cell cycle analysis (PI flow cytometry); type: cell-based, human; conditions: DU145, 9o at its GI50 concentration, 48h
Procedure: Concurrently, there is a decline in the % of cells in the G2 phase from 22.20% in control cells to 20.94% in 9o treated cells.
(§1) DU145 cancer cell line derived from prostate cancer was treated with the oxindole–benzothiazole conjugate 9o at its GI50. This was followed by treatment of cells according to the reported procedure and the percentage of cells in each stage of the cell cycle was identified and the percentage of cells in the apoptotic and necrotic stages were detected (for further details see additional file 1: analysis of cell cycle distribution; apoptosis assay).
(§2) 6. Analysis of cell cycle distribution
(§3) DU-145: Prostate cancer was obtained from Nawah Scientific Inc., (Mokatam, Cairo, Egypt).
Cells were maintained in DMEM media supplemented with […] of streptomycin, 100 units/mL of penicillin and 10% of heat-inactivated fetal bovine serum in humidified, 5% (v/v) CO2 atmosphere at 37 °C. After treatment with 9o for 48h, cells (10^5 cells) are collected by trypsinization and washed twice with ice-cold PBS (pH 7.4). Cells are re-suspended in two milliliters of 60% ice-cold ethanol and incubated at 4 °C for 1h for fixation. Fixed cells are washed twice again with PBS (pH 7.4) and re-suspended in 1 mL of PBS containing 50 μg/mL RNAase A and 10 μg/mL propidium iodide (PI). After 20 min of incubation in dark at 37 °C, cells are analyzed for DNA contents using flow cytometry analysis using FL2 (λex/em 535/617 nm) signal detector (ACEA Novocyte™ flowcytometer, ACEA Biosciences Inc., San Diego, CA, USA). For each sample, 12,000 events are acquired. […]

FGFR-1 = FGFR-1 (Homo sapiens, UniProt P11362); assay: Kinase inhibitory activity on FGFR-1; type: biochemical; conditions: mean of two independent experiments ± SD
Sequence of FGFR-1 (P11362 22-822, species assumed): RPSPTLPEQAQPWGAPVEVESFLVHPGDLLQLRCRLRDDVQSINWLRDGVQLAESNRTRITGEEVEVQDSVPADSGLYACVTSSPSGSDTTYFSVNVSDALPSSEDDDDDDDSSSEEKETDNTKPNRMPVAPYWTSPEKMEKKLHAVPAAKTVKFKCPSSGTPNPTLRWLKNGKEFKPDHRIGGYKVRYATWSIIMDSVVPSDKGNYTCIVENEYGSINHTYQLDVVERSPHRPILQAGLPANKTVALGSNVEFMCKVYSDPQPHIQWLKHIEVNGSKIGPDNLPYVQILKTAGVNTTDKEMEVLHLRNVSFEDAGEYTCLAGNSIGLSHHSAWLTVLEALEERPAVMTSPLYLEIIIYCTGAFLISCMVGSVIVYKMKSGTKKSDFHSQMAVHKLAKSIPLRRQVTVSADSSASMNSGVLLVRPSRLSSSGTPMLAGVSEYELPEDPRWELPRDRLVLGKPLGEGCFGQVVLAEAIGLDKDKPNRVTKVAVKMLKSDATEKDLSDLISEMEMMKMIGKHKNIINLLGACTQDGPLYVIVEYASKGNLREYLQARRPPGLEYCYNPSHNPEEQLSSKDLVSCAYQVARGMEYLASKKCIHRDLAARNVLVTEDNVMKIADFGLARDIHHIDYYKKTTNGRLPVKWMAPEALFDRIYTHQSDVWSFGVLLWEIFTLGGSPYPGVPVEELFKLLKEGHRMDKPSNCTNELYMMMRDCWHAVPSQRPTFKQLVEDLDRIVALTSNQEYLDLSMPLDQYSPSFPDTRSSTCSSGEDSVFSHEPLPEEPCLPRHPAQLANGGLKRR

[2] = tested on: DU145 prostate cancer cell line; assay: Apoptosis assay (Annexin V-FITC/PI flow cytometry); type: cell-based, human; conditions: DU145, 9o at its GI50 concentration, 48h
Procedure: as §1, §2, §3
Cells were maintained in DMEM media supplemented with […] of streptomycin, 100 units/mL of penicillin and 10% of heat-inactivated fetal bovine serum in humidified, 5% (v/v) […]
CO2 atmosphere at 37 °C. […]
Apoptosis and necrosis cell populations are determined using Annexin V-FITC apoptosis detection kit (Abcam Inc., Cambridge Science Park, Cambridge, UK) coupled with 2 fluorescent channels flowcytometry. After treatment with test compounds for 48h, cells (10^5 cells) are collected by trypsinization and washed twice with ice-cold PBS (pH 7.4). Then, cells are incubated in dark with 0.5 ml of Annexin V-FITC/PI solution for 30 min in dark at room temperature according to manufacturer protocol. After staining, cells are injected via ACEA Novocyte™ flowcytometer (ACEA Biosciences Inc., San Diego, CA, USA) and analysed for FITC and PI fluorescent signals using FL1 and FL2 signal detector, respectively […]
events are acquired and positive FITC and/or PI cells are quantified by quadrant analysis and […]

VEGFR-2 = VEGFR-2 (Homo sapiens, UniProt P35968); assay: Kinase inhibitory activity on VEGFR-2; type: biochemical; conditions: mean of two independent experiments ± SD
Sequence of VEGFR-2 (P35968 20-1356, species assumed): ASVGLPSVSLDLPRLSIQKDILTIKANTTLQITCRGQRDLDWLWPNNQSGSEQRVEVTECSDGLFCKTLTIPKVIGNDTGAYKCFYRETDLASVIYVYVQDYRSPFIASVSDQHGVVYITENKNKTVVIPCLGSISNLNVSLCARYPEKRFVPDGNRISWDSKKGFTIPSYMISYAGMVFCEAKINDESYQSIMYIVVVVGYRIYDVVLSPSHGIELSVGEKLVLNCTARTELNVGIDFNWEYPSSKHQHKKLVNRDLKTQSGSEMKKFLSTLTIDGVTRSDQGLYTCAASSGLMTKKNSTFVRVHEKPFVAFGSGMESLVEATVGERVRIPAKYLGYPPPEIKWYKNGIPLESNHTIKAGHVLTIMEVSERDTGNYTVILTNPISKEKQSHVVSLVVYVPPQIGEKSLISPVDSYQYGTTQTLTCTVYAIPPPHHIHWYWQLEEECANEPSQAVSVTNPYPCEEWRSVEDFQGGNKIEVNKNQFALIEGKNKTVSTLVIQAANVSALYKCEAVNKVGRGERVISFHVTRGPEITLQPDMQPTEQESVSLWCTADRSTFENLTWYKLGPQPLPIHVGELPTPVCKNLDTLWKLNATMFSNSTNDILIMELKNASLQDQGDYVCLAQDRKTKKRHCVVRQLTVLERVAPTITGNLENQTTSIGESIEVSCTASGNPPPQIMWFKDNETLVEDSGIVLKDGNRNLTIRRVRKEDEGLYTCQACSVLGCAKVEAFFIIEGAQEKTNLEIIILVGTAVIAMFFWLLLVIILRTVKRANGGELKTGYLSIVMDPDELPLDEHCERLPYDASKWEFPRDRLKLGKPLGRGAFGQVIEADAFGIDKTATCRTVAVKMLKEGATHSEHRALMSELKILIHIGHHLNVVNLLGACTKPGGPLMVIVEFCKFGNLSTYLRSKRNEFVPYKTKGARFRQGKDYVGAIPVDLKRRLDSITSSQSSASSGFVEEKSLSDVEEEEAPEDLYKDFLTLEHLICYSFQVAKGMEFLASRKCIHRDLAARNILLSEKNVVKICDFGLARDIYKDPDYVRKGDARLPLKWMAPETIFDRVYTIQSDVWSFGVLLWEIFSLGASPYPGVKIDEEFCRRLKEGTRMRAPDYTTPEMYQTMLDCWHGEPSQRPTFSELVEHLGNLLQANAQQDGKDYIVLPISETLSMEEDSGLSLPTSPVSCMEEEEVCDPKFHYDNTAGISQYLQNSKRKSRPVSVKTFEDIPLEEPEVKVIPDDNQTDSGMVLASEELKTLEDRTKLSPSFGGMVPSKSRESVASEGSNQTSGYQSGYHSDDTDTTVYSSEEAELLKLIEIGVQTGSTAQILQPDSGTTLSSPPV

CDK5 = CDK5 (Homo sapiens, UniProt Q00535); assay: Kinase inhibitory activity on CDK5; type: biochemical; conditions: mean of two independent experiments ± SD
Sequence of CDK5 (Q00535 whole entry, species assumed): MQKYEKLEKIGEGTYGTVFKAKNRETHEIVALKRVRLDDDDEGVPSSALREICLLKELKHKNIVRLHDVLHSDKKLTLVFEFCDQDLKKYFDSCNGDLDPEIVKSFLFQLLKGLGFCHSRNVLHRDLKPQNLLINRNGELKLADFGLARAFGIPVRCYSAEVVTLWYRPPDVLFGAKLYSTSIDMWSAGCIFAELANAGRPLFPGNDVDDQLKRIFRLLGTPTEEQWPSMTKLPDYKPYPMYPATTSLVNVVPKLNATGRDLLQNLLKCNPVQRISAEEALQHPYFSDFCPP
Sequence of CDK5 (Q15078 99-307 partner limits assumed, species assumed): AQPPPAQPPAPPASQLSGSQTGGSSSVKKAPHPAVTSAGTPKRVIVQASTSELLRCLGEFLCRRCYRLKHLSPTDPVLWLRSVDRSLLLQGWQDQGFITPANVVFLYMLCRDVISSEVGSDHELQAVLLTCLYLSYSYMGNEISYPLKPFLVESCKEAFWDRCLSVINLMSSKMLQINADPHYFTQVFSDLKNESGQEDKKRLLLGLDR

COc1ccc2c(c1)C(=NNC(=O)COc1cc(-c3nc4ccccc4s3)ccc1OC)C(=O)N2 [Compound 9o, 2-(5-(Benzo[d]thiazol-2-yl)-2-methoxyphenoxy)-N′-(5-methoxy-2-oxoindolin-3-ylidene)acetohydrazide]
%G0/G1 [1]: 61.40% | %G2/M [1]: 20.94% | %S [1]: 17.66% | %Sub-G1 [1]: 0.41% | IC50 (FGFR-1): > 10 µM | % early apoptotic cells (Q2–4) [2]: 0.28% | % of cells in the late apoptotic stage (Q2–2) [2]: 5.02% | % of cells in the necrotic stage (Q2–1) [2]: 2.63% | % viable cells (Q2–3) [2]: 92.07% | IC50 (VEGFR-2): > 10 µM | IC50 (CDK5): 0.34 ± 0.02 µM
